Experimental data reported in article PMC9848300, “Discovery of novel enasidenib analogues targeting inhibition of mutant isocitrate dehydrogenase 2 as antileukaemic agents” (Journal of Enzyme Inhibition and Medicinal Chemistry, 2023).

Assays:
[1] = system: SW-620; experiment: NCI 60 antitumor screening (single dose / five doses); format: cell-based, human; conditions: Homo sapiens; SW-620 (colon cancer), single dose 10 μM; read-out: Growth inhibition percentage (GI %)
[2] = system: COLO 205; experiment: as above; format: cell-based; conditions: Homo sapiens; COLO 205 (colon cancer), single dose 10 μM; read-out: Growth inhibition percentage (GI %)
[3] = system: HOP-92; experiment: as above; format: cell-based; conditions: Homo sapiens; HOP-92 (non-small cell lung cancer), single dose 10 μM; read-out: Growth inhibition percentage (GI %)
[4] = system: ACHN; experiment: as above; format: cell-based; conditions: Homo sapiens; ACHN (renal cancer), single dose 10 μM; read-out: Growth inhibition percentage (GI %)
[5] = system: SR; experiment: as above; format: cell-based; conditions: Homo sapiens; SR (leukaemia), single dose 10 μM; read-out: Growth inhibition percentage (GI %)
[6] = system: UACC-62; experiment: as above; format: cell-based; conditions: Homo sapiens; UACC-62 (melanoma), single dose 10 μM; read-out: Growth inhibition percentage (GI %)
[7] = system: SN 12C; experiment: as above; format: cell-based; conditions: Homo sapiens, SN12C; SN 12C (renal cancer), single dose 10 μM; read-out: Growth inhibition percentage (GI %)
[8] = system: SK-OV-3; experiment: NCI 60 antitumor screening (single dose); format: cell-based; conditions: Homo sapiens; SK-OV-3 (ovarian cancer), single dose 10 μM; read-out: Growth inhibition percentage (GI %)
Method in brief: (§1)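 Percent growth inhibition, calculated as 100 minus percent growth (G%) of treated cells, following a single 10 μM exposure in the NCI 60 human cancer cell screen; triplicate runs.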

[9] = system: PC-3; experiment: NCI 60 antitumor screening (single dose); format: cell-based; conditions: Homo sapiens; PC-3 (prostate cancer), single dose 10 μM; read-out: Growth inhibition percentage (GI %)
Method in brief: (§2)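 NCI-60 one-dose screen. Dose: 10 μM. Lines: 60 human tumour lines, nine tissue types. Output: GI% = 100 − G%.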

[10] = system: NCI-H460; experiment: NCI 60 antitumor screening (single dose); format: cell-based; conditions: Homo sapiens; NCI-H460 (non-small cell lung cancer), single dose 10 μM; read-out: Growth inhibition percentage (GI %)
Method in brief: as §1

[11] = system: HS 578T; experiment: NCI 60 antitumor screening (single dose); format: cell-based; conditions: Homo sapiens; HS 578T (breast cancer), single dose 10 μM; read-out: Growth inhibition percentage (GI %)
Method in brief: as §2

[12] = system: MALME-3M; experiment: NCI 60 antitumor screening (single dose / five doses); format: cell-based; conditions: Homo sapiens; MALME-3M (melanoma), single dose 10 μM; read-out: Growth inhibition percentage (GI %)
[13] = system: SK-MEL-5; experiment: as above; format: cell-based; conditions: Homo sapiens; SK-MEL-5 (melanoma), single dose 10 μM; read-out: Growth inhibition percentage (GI %)
[14] = system: MDA-MB-468; experiment: as above; format: cell-based; conditions: Homo sapiens; MDA-MB-468 (breast cancer), single dose 10 μM; read-out: Growth inhibition percentage (GI %)
[15] = system: DU-145; experiment: as above; format: cell-based; conditions: Homo sapiens; DU-145 (prostate cancer), single dose 10 μM; read-out: Growth inhibition percentage (GI %)
[16] = system: MDA-MB-231/ATCC; experiment: as above; format: cell-based; conditions: Homo sapiens; MDA-MB-231/ATCC (breast cancer), single dose 10 μM; read-out: Growth inhibition percentage (GI %)
[17] = system: EKVX; experiment: as above; format: cell-based; conditions: Homo sapiens; EKVX (non-small cell lung cancer), single dose 10 μM; read-out: Growth inhibition percentage (GI %)
[18] = system: SF-539; experiment: as above; format: cell-based; conditions: Homo sapiens; SF-539 (CNS cancer), single dose 10 μM; read-out: Growth inhibition percentage (GI %)
[19] = system: UACC-257; experiment: as above; format: cell-based; conditions: Homo sapiens; UACC-257 (melanoma), single dose 10 μM; read-out: Growth inhibition percentage (GI %)
[20] = system: IGROV1; experiment: as above; format: cell-based; conditions: Homo sapiens, IGROV-1; IGROV1 (ovarian cancer), single dose 10 μM; read-out: Growth inhibition percentage (GI %)
[21] = system: CCRF-CEM; experiment: as above; format: cell-based; conditions: Homo sapiens; CCRF-CEM (leukaemia), single dose 10 μM; read-out: Growth inhibition percentage (GI %)
[22] = system: HT29; experiment: as above; format: cell-based, human; conditions: Homo sapiens, HT-29; HT29 (colon cancer), single dose 10 μM; read-out: Growth inhibition percentage (GI %)
[23] = system: SK-MEL-28; experiment: as above; format: cell-based; conditions: Homo sapiens; SK-MEL-28 (melanoma), single dose 10 μM; read-out: Growth inhibition percentage (GI %)
[24] = system: SNB-75; experiment: as above; format: cell-based; conditions: Homo sapiens; SNB-75 (CNS cancer), single dose 10 μM; read-out: Growth inhibition percentage (GI %)
[25] = system: RXF 393; experiment: as above; format: cell-based; conditions: Homo sapiens; RXF 393 (renal cancer), single dose 10 μM; read-out: Growth inhibition percentage (GI %)
[26] = system: MDA-MB-435; experiment: as above; format: cell-based; conditions: Homo sapiens; MDA-MB-435 (melanoma), single dose 10 μM; read-out: Growth inhibition percentage (GI %)
[27] = system: NCI/ADR-RES; experiment: as above; format: cell-based; conditions: Homo sapiens; NCI/ADR-RES (ovarian cancer), single dose 10 μM; read-out: Growth inhibition percentage (GI %)

Row | SMILES | inhibition at 10 µM [1] [%] | inhibition at 10 µM [2] [%] | inhibition at 10 µM [3] [%] | inhibition at 10 µM [4] [%] | inhibition at 10 µM [5] [%] | inhibition at 10 µM [6] [%] | inhibition at 10 µM [7] [%] | inhibition at 10 µM [8] [%] | inhibition at 10 µM [9] [%] | inhibition at 10 µM [10] [%] | inhibition at 10 µM [11] [%] | inhibition at 10 µM [12] [%] | inhibition at 10 µM [13] [%] | inhibition at 10 µM [14] [%] | inhibition at 10 µM [15] [%] | inhibition at 10 µM [16] [%] | inhibition at 10 µM [17] [%] | inhibition at 10 µM [18] [%] | inhibition at 10 µM [19] [%] | inhibition at 10 µM [20] [%] | also measured
1 | CN(C)c1ccc(/C=N/Nc2nc(N/N=C/c3ccc(N(C)C)cc3)nc(N3CCOCC3)n2)cc1 [compound 6g, 4-[(1e)-(2-{4-[(E)-2-{[4-(dimethylamino)phenyl]methylidene}hydrazin-1-yl]-6-(morpholin-4-yl)-1,3,5-triazin-2-yl}hydrazin-1-ylidene)methyl]-N,N-dimethylaniline] | 16.2 | -8.37 | -8.78 | -4.23 | 113 | 2.25 | 10.8 | -9.91 | 12.3 | 83.3 | 2.43 | -14.2 | -0.23 | 2.17 | 7.27 | 0.47 | 4.62 | 3.33 | -2.69 | 5.41 | inhibition at 10 µM [21]: 86.7%; inhibition at 10 µM [22]: -1.91%; inhibition at 10 µM [23]: -5.75%; inhibition at 10 µM [24]: 12.6%; inhibition at 10 µM [25]: 6.9%; inhibition at 10 µM [26]: -4.43%; inhibition at 10 µM [27]: 0.17%
2 | C(=N\Nc1nc(N/N=C/c2ccc3c(c2)OCO3)nc(N2CCOCC2)n1)/c1ccc2c(c1)OCO2 [compound 6k, 2,4-Bis[(E)-2-(2H-1,3-Benzodioxol-5-ylmethylidene)hydrazin-1-yl]-6-(morpholin-4-yl)-1,3,5-triazine] | 29 | 40.7 | 8.47 | 24.7 | 85 | -4.28 | 24.1 | -11.8 | 30.1 | 12.2 | 16.7 | -3.77 | 14 | 32.1 | 23.9 | 0.11 | 4.47 | 18.2 | -2.23 | 24.3 | inhibition at 10 µM [21]: 41%; inhibition at 10 µM [22]: 51.7%; inhibition at 10 µM [23]: 12.8%; inhibition at 10 µM [24]: 13.4%; inhibition at 10 µM [25]: 30.5%; inhibition at 10 µM [26]: 4.07%; inhibition at 10 µM [27]: 23.3%
3 | Brc1ccccc1/C=N/Nc1nc(N/N=C/c2ccccc2Br)nc(N2CCCCC2)n1 [compound 7b, 2,4-Bis[(E)-2-[(2-Bromophenyl)methylidene]hydrazin-1-yl]-6-(piperidin-1-yl)-1,3,5-triazine] | -0.46 | -5.18 | -33 | 4.56 | -1.34 | 12.2 | 5.69 | -0.76 | 5.07 | 0.96 | -5.25 | -6.25 | 5.12 | 12.4 | -4.47 | 2.05 | 4.52 | 2.62 | -8.22 | 2.38 | inhibition at 10 µM [21]: 0.06%; inhibition at 10 µM [22]: -1.89%; inhibition at 10 µM [23]: -0.81%; inhibition at 10 µM [24]: -2.35%; inhibition at 10 µM [25]: 2.13%; inhibition at 10 µM [26]: -1.23%; inhibition at 10 µM [27]: -2.41%
